ChEMBL document CHEMBL5390204, “Persephacin Is a Broad-Spectrum Antifungal Aureobasidin Metabolite That Overcomes Intrinsic Resistance in Aspergillus fumigatus” (J Nat Prod, 2023)
≈ marks a conversion by molar mass, not a printed value. Blank lines part the entries; values can stand above or below the compound they belong to. Calls of active or inactive are those of the source. The rule behind the calls is not given here.

Tests used:
[1] = tested on: Candida parapsilosis; test: Antifungal activity against Candida parapsilosis ATCC 22019 (Y-12969) assessed as reduction in fungal growth incubated for 48 hrs by microplate reader analysis; type: functional; settings: Lodderomyces parapsilosis
[2] = tested on: Candida albicans; test: Antifungal activity against Candida albicans ATCC 10231 assessed as reduction in fungal growth incubated for 48 hrs by microplate reader analysis; type: functional
[3] = tested on: Candida albicans; test: Antifungal activity against Candida albicans SC5314 assessed as reduction in fungal growth incubated for 48 hrs by microplate reader analysis; type: functional
[4] = tested on: Pichia kudriavzevii; test: Antifungal activity against Candida krusei ATCC 6258 (Y-7179) assessed as reduction in fungal growth incubated for 48 hrs by microplate reader analysis; type: functional
[5] = tested on: Candida tropicalis; test: Antifungal activity against Candida tropicalis ATCC750 (Y-12699) assessed as reduction in fungal growth incubated for 48 hrs by microplate reader analysis; type: functional
[6] = tested on: Cryptococcus neoformans; test: Antifungal activity against Cryptococcus neoformans H99 assessed as reduction in fungal growth incubated for 48 hrs by microplate reader analysis; type: functional
[7] = tested on: Aspergillus fumigatus; test: Antifungal activity against Aspergillus fumigatus MYA 3627 assessed as reduction in fungal growth incubated for 48 hrs by microplate reader analysis; type: functional
[8] = tested on: Aspergillus fumigatus; test: Antifungal activity against Aspergillus fumigatus NRRL6113 assessed as reduction in fungal growth incubated for 48 hrs by microplate reader analysis; type: functional
[9] = tested on: Aspergillus fumigatus; test: Antifungal activity against Aspergillus fumigatus NRRL5109 assessed as reduction in fungal growth incubated for 48 hrs by microplate reader analysis; type: functional
[10] = tested on: Aspergillus flavus; test: Antifungal activity against Aspergillus flavus NRRL485 assessed as reduction in fungal growth incubated for 48 hrs by microplate reader analysis; type: functional
[11] = tested on: Aspergillus niger; test: Antifungal activity against Aspergillus niger FGSC A732 assessed as reduction in fungal growth incubated for 48 hrs by microplate reader analysis; type: functional
[12] = tested on: Aspergillus terreus; test: Antifungal activity against Aspergillus terreus 191A6 assessed as reduction in fungal growth incubated for 48 hrs by microplate reader analysis; type: functional
[13] = tested on: Curvularia lunata; test: Antifungal activity against Curvularia lunata NRRL6409 assessed as reduction in fungal growth incubated for 48 hrs by microplate reader analysis; type: functional
[14] = tested on: Rhizopus arrhizus; test: Antifungal activity against Rhizopus oryzae FGSC 9543 assessed as reduction in fungal growth incubated for 48 hrs by microplate reader analysis; type: functional
[15] = tested on: Mucor circinelloides; test: Antifungal activity against Mucor circinelloides 235C7 assessed as reduction in fungal growth incubated for 48 hrs by microplate reader analysis; type: functional
[16] = tested on: Fusarium solani; test: Antifungal activity against Fusarium solani 243G2 assessed as reduction in fungal growth incubated for 48 hrs by microplate reader analysis; type: functional
[17] = tested on: Paecilomyces lilacinus; test: Antifungal activity against Paecilomyces lilacinus 165E10 assessed as reduction in fungal growth incubated for 48 hrs by microplate reader analysis; type: functional; settings: Purpureocillium lilacinum
[18] = tested on: Hamigera insecticola; test: Antifungal activity against Hamigera insecticola NRRL35442 assessed as reduction in fungal growth incubated for 48 hrs by microplate reader analysis; type: functional
[19] = tested on: Candida albicans; test: Antifungal activity against Candida albicans SC5314 assessed as reduction in fungal viability incubated for 48 hrs by microplate reader analysis; type: functional
[20] = tested on: Candida albicans; test: Antifungal activity against Candida albicans ATCC 10231 assessed as reduction in fungal viability incubated for 48 hrs by microplate reader analysis; type: functional
[21] = tested on: Candida parapsilosis; test: Antifungal activity against Candida parapsilosis ATCC 22019 (Y-12969) assessed as reduction in fungal viability incubated for 48 hrs by microplate reader analysis; type: functional
[22] = tested on: Candida tropicalis; test: Antifungal activity against Candida tropicalis ATCC750 (Y-12699) assessed as reduction in fungal viability incubated for 48 hrs by microplate reader analysis; type: functional
[23] = tested on: Pichia kudriavzevii; test: Antifungal activity against Candida krusei ATCC 6258 (Y-7179) assessed as reduction in fungal viability incubated for 48 hrs by microplate reader analysis; type: functional
[24] = tested on: Cryptococcus neoformans; test: Antifungal activity against Cryptococcus neoformans H99 assessed as reduction in fungal viability incubated for 48 hrs by microplate reader analysis; type: functional
[25] = tested on: Aspergillus fumigatus; test: Antifungal activity against Aspergillus fumigatus MYA 3627 assessed as reduction in fungal viability incubated for 48 hrs by microplate reader analysis; type: functional
[26] = tested on: Aspergillus fumigatus; test: Antifungal activity against Aspergillus fumigatus NRRL6113 assessed as reduction in fungal viability incubated for 48 hrs by microplate reader analysis; type: functional
[27] = tested on: Aspergillus fumigatus; test: Antifungal activity against Aspergillus fumigatus NRRL5109 assessed as reduction in fungal viability incubated for 48 hrs by microplate reader analysis; type: functional
[28] = tested on: Aspergillus flavus; test: Antifungal activity against Aspergillus flavus NRRL485 assessed as reduction in fungal viability incubated for 48 hrs by microplate reader analysis; type: functional
[29] = tested on: Aspergillus niger; test: Antifungal activity against Aspergillus niger FGSC A732 assessed as reduction in fungal viability incubated for 48 hrs by microplate reader analysis; type: functional
[30] = tested on: Aspergillus terreus; test: Antifungal activity against Aspergillus terreus 191A6 assessed as reduction in fungal viability incubated for 48 hrs by microplate reader analysis; type: functional
[31] = tested on: Curvularia lunata; test: Antifungal activity against Curvularia lunata NRRL6409 assessed as reduction in fungal viability incubated for 48 hrs by microplate reader analysis; type: functional
[32] = tested on: Rhizopus arrhizus; test: Antifungal activity against Rhizopus oryzae FGSC 9543 assessed as reduction in fungal viability incubated for 48 hrs by microplate reader analysis; type: functional
[33] = tested on: Mucor circinelloides; test: Antifungal activity against Mucor circinelloides 235C7 assessed as reduction in fungal viability incubated for 48 hrs by microplate reader analysis; type: functional
[34] = tested on: Fusarium solani; test: Antifungal activity against Fusarium solani 243G2 assessed as reduction in fungal viability incubated for 48 hrs by microplate reader analysis; type: functional
[35] = tested on: Paecilomyces lilacinus; test: Antifungal activity against Paecilomyces lilacinus 165E10 assessed as reduction in fungal viability incubated for 48 hrs by microplate reader analysis; type: functional, Purpureocillium lilacinum
[36] = tested on: Hamigera insecticola; test: Antifungal activity against Hamigera insecticola NRRL35442 assessed as reduction in fungal viability incubated for 48 hrs by microplate reader analysis; type: functional
[37] = tested on: Candida albicans; test: Antifungal activity against Candida albicans SC5314 infected in pig cornea assessed as suppression of fungal growth at 5 % administered post fungal infection measured after 4 days by microscopic analysis; type: functional, organism-based; settings: time 4.0 day
[38] = tested on: Candida albicans; test: Antifungal activity against fluconazole-resistant Candida albicans SC5314 infected in pig cornea assessed as suppression of fungal growth at 5 % administered post fungal infection measured after 4 days by microscopic analysis; type: functional, organism-based; settings: time 4.0 day
[39] = tested on: Aspergillus fumigatus; test: Antifungal activity against Aspergillus fumigatus NRRL5109 infected in pig cornea assessed as suppression of fungal growth at 5 % administered post fungal infection measured after 4 days by microscopic analysis; type: functional, organism-based; settings: time 4.0 day

- MIC80 [1]: 0.3 µM (≈ 0.328 µg/mL)
- MIC80 [2]: 0.03 µM (≈ 0.0328 µg/mL)
- MIC80 [3]: 0.03 µM (≈ 0.0328 µg/mL)
- MIC80 [4]: 0.2 µM (≈ 0.219 µg/mL)
- MIC80 [5]: 0.03 µM (≈ 0.0328 µg/mL)
- MIC80 [6]: > 10 µM
- MIC80 [7]: 0.1 µM (≈ 0.109 µg/mL)
- MIC80 [8]: > 10 µM
- MIC80 [9]: > 10 µM
- MIC80 [10]: > 10 µM
- MIC80 [11]: 0.1 µM (≈ 0.109 µg/mL)
- MIC80 [12]: 0.13 µM (≈ 0.142 µg/mL)
- MIC80 [13]: 5 µM (≈ 5.47 µg/mL)
- MIC80 [14]: > 10 µM
- MIC80 [15]: > 10 µM
- MIC80 [16]: 0.2 µM (≈ 0.219 µg/mL)
- MIC80 [17]: > 10 µM
SMILES: CC[C@H](C)C[C@H](C)CCCCCCCCC(=O)N[C@H]1C[C@@H](O)[C@@H](NCCN)NC(=O)[C@@H]2[C@@H](O)CCN2C(=O)[C@H]([C@H](O)CCN)NC(=O)[C@H]([C@H](O)[C@@H](O)c2ccc(O)cc2)NC(=O)[C@@H]2C[C@@H](O)CN2C(=O)[C@H]([C@@H](C)O)NC1=O [CASPOFUNGIN]
- MFC [1]: 1.3 µM (≈ 1.42 µg/mL)
- MFC [2]: 5 µM (≈ 5.47 µg/mL)
- MFC [3]: 0.63 µM (≈ 0.689 µg/mL)
- MFC [4]: 0.3 µM (≈ 0.328 µg/mL)
- MFC [5]: 0.2 µM (≈ 0.219 µg/mL)
- MFC [6]: > 10 µM
- MFC [7]: > 10 µM
- MFC [8]: > 10 µM
- MFC [9]: > 10 µM
- MFC [10]: > 10 µM
- MFC [11]: > 10 µM
- MFC [12]: > 10 µM
- MFC [13]: 5 µM (≈ 5.47 µg/mL)
- MFC [14]: > 10 µM
- MFC [15]: > 10 µM
- MFC [16]: > 10 µM
- MFC [17]: > 10 µM
- MFC [18]: > 10 µM
- MIC80 [18]: 0.1 µM (≈ 0.109 µg/mL)
- MFC<=99.9 [19]: 0.63 µM (≈ 0.689 µg/mL)
- MFC<=99.9 [20]: 5 µM (≈ 5.47 µg/mL)
- MFC<=99.9 [21]: 1.3 µM (≈ 1.42 µg/mL)
- MFC<=99.9 [22]: 0.2 µM (≈ 0.219 µg/mL)
- MFC<=99.9 [23]: 0.3 µM (≈ 0.328 µg/mL)
- MFC<=99.9 [24]: >10 µM
- MFC<=99.9 [25]: >10 µM
- MFC<=99.9 [26]: >10 µM
- MFC<=99.9 [27]: >10 µM
- MFC<=99.9 [28]: >10 µM
- MFC<=99.9 [29]: >10 µM
- MFC<=99.9 [30]: >10 µM
- MFC<=99.9 [31]: 5 µM (≈ 5.47 µg/mL)
- MFC<=99.9 [32]: >10 µM
- MFC<=99.9 [33]: >10 µM
- MFC<=99.9 [34]: >10 µM
- MFC<=99.9 [35]: >10 µM
- MFC<=99.9 [36]: >10 µM

SMILES: C[C@@H]1C/C=C/C=C/C=C/C=C/[C@H](O[C@@H]2O[C@H](C)[C@@H](O)[C@H](N)[C@@H]2O)C[C@@H]2O[C@](O)(C[C@@H](O)C[C@H]3O[C@@H]3/C=C/C(=O)O1)C[C@H](O)[C@H]2C(=O)O
- Activity [37]: Active
- Activity [38]: Active
- Activity [39]: Active
